{"source": "patent US9925134B2", "about": "“Use of substances to protect FGF-2 or FGF-beta growth factor” (BASF Beauty Care Solutions France SAS, priority 2007, dated 2018)", "key": {"normal human fibroblasts [1]": {"test_system": "normal human fibroblasts", "experiment": "Stimulation of collagen synthesis, 3H-proline incorporation", "type": "cell-based", "settings": "Vitamin C 20 μg/ml; 48 hrs", "procedure": "A control was made in parallel with medium only. After 24 hrs of contact, radioactive […]-proline) is added to the medium. At the end of the experiment, the supernatants are collected for dosing the incorporation of radioactive […] into the intracellular proteins."}, "[2]": {"test_system": "normal human dermal fibroblasts", "experiment": "Fibroblast proliferation by FGF-2 protected by heparin or extract 5c (PNPP)", "type": "cell-based", "settings": "for Proliferation (expressed as percent relative to the non-treated well): 48 hrs, heparin 0.01% during 24 hrs at 37° C.", "procedure": "A solution of FGF-2 is prepared extemporaneously (=non-degraded FGF-2); a solution of FGF-2 is placed for 24 hrse at 37° C. in the absence (=degraded FGF-2) and in the presence of heparin (=FGF-2+heparin at 37° C.) at 0.01%.\nEach FGF-2 solution is diluted so as to be applied on the cells, the final FGF-2 concentrations being the following: 0.1, 0.25, 0.5, 0.75 and 1 ng/ml.\nNormal human dermal fibroblasts were sown at low density in 6-well plates. They were then grown in a medium in the absence (control) or in the presence of FGF-2 at various concentrations.\nAfter 48 hrs, the activity of intracellular acid phosphatases (PNPP) is dosed, so as to be able to evaluate the effect of FGF-2 solutions, either treated or not, on cell proliferation.\nThe results are expressed as a proliferation percentage relative to the control well i.e. to the non-treated well.\nThe same experiment was conducted by replacing heparin with extract 5c. The FGF-2 solution put into the presence of 0.5% of extract 5c is placed for 24 hrs at 37° C. The solution is then diluted so as to apply 0.5 ng/ml of FGF-2 in the wells containing the fibroblasts.\nThe 5c extract concentration finally applied on the cells is 0.0025%. It was checked beforehand that this 5c extract concentration was not capable of inducing stimulation of the proliferation of fibroblasts. This means that the observed stimulation of proliferation is actually due to the protection of FGF-2 by extract 5c (see Table 8)."}, "normal human fibroblasts [3]": {"test_system": "normal human fibroblasts", "experiment": "Stimulation of synthesis of sulfated GAGs, 35S-sulfate incorporation", "type": "cell-based", "settings": "TGF-β 10 ng/ml", "procedure": "(§1) Normal human fibroblasts stemming from a donor, were grown in 96-well plates with medium (consisting of DMEM, glutamine 2 mM, penicillin 50 IU/ml-streptomycin 50 μg/ml, 10% fetal calf serum) for 24 hrs. […] A control was made in parallel with the medium only.\n(§2) At the end of the experiment, the supernatants are collected for dosing the incorporation of radioactive glucosamine into the intracellular proteins. Dosage of the proteins is performed with a commercial kit (BioRad 500-0116).\nIn the same way, a study of the incorporation of ^35S-sulfate is conducted for quantifying the sulfated GAGs. The applied procedure is the same as that for the total GAGs, except for the nature of the radioactive precursor."}, "normal human fibroblasts [4]": {"test_system": "normal human fibroblasts", "experiment": "Stimulation of synthesis of total GAGs, radioactive glucosamine incorporation", "type": "cell-based", "settings": "TGF-β 10 ng/ml; 72 hrs", "procedure": "as §1\nAfter 48 hrs of contact, radioactive glucosamine (D-(6-^3H)-glucosamine) is added to the medium.\nas §2"}, "FGF-2 [5]": {"target": "T1, FGF-2 (Homo sapiens, UniProt P09038)", "experiment": "Protection of FGF-2 against thermal degradation, stress of 2.15 hrs at 45° C., FGF-2 dosed by ELISA kit", "type": "biochemical", "settings": "for FGF-2 protection by GAGs and proteoglycans of the skin (in words): solutions at 0.1%", "procedure": "Degradation of FGF-2 observed at about 50° C. is particularly interesting, because a short period of time allows degradation of FGF-2 of about 80%, thereby allowing a large number of tests to be conducted. For this reason, it was decided to achieve screening with a stress of 2.15 hrs at 45° C. and to study the capacity of a large number of actives for protecting FGF-2 against this thermal degradation.\nThe applied screening model is the following: • 180 μl of a 4.5 ng/ml FGF-2 solution prepared in 0.1% BSA/PBS buffer are distributed in a 96-well microplate. 20 μl of distilled water or 0.05% heparin or a solution containing various active ingredients extracted from different plants to be tested are added. The plate is stirred by means of a plate stirrer and then covered with adhesive tape and placed in an oven at 45° C. for 2.15 hrs. At the end of the incubation period, the plate is taken out and dosage of FGF-2 is then carried out by means of the ELISA kit.\nA control plate only containing FGF-2 and distilled water, treated under the same conditions, is left at room temperature.\nThe results are expressed as a FGF-2 protection percentage relatively to the non-stressed or non-degraded FGF-2 control.\nThe stress protocol described in Example 2 was applied, 20 μl of water being substituted with 20 μl of corresponding GAG or PG solution. The tested GAGs and PGs thereby undergo additional dilution to 1/10. […]"}, "FGF-2 [6]": {"target": "T1, FGF-2", "settings": "pH 2 and pH 9 versus neutral pH; cited from earlier work"}, "FGF-2 [7]": {"target": "T1, FGF-2", "settings": "cited from earlier work"}, "FGF-2 [8]": {"target": "T1, FGF-2", "experiment": "Protection of FGF-2 at physiological temperature, FGF-2 dosed after 24 hrs at 37° C.", "type": "biochemical", "settings": "0.01% heparin", "procedure": "It was absolutely necessary to check whether the extract 5c was able to protect FGF-2 at a physiological temperature, i.e., 37° C. This is why an investigation consisted of dosing FGF-2 after 24 hrs at 37° C. in the absence or in the presence of increasing concentrations of extract 5c."}, "FGF-2 [9]": {"target": "T1, FGF-2", "settings": "3 hours of incubation at 37° C.; cited from earlier work"}, "FGF-2 [10]": {"target": "T1, FGF-2", "experiment": "Study of thermal degradation (stability) of FGF-2 at various temperatures with or without heparin, ELISA", "type": "physicochemical", "settings": "0.05% heparin", "procedure": "A 5 ng/ml solution of FGF-2 in a 10 mM PBS buffer with 0.1% BSA and 0.1% of methylparaben is prepared.\nThis solution is placed at various temperatures: 4° C., 20° C., 37° C., 50° C., and 80° C. either in the presence of heparin or not at 500 μg/ml.\nDosages of FGF-2 with a commercial ELISA kit (R&D system, France) are performed at different times (T=0, 3 hrs, 24 hrs and 48 hrs) so as to establish degradation kinetics for each temperature of investigation.\nThe results are expressed as a percentage of FGF-2 relative to time T=0. The experiments are conducted in triplicates (n=3). The obtained results are illustrated in FIGS. 1 and 2."}, "[11]": {"settings": "0.01%, 0.001%, further diluted 1/10, 45° C. 2.15 hrs"}}}
{"molecule": "O=C1O[C@H]([C@@H](O)CO)C(O)=C1O", "note": "[Vitamin C, vitamin C]", "values": [{"measurement": "% control (collagen synthesis)", "setting": "normal human fibroblasts [1]", "value": 170, "unit": "%"}, {"measurement": "cpm (3H-proline incorporation)", "setting": "normal human fibroblasts [1]", "value": 10185, "unit": "cpm"}]}
{"molecule": "Degraded FGF-2: solution of FGF-2 placed for 24 hrs at 37° C. in the absence of heparin", "values": [{"measurement": "Proliferation (as a percentage) of fibroblasts relative to the non-treated control", "setting": "[2]; FGF-2 0.5 ng/ml, 0.5% 5c extract during 24 hrs at 37° C. (0.0025% on the cells)", "value": "123.7% ± 0.005"}, {"measurement": "Proliferation (expressed as percent relative to the non-treated well)", "setting": "[2]; FGF-2 concentration 0.1 ng/ml", "value": "96.2 ± 0.014", "unit": "%"}, {"measurement": "Proliferation (expressed as percent relative to the non-treated well)", "setting": "[2]; FGF-2 concentration 0.25 ng/ml", "value": "111 ± 0.006", "unit": "%"}, {"measurement": "Proliferation (expressed as percent relative to the non-treated well)", "setting": "[2]; FGF-2 concentration 0.5 ng/ml", "value": "123.7 ± 0.005", "unit": "%"}, {"measurement": "Proliferation (expressed as percent relative to the non-treated well)", "setting": "[2]; FGF-2 concentration 0.75 ng/ml", "value": "132.5 ± 0.004", "unit": "%"}, {"measurement": "Proliferation (expressed as percent relative to the non-treated well)", "setting": "[2]; FGF-2 concentration 1 ng/ml", "value": "146.4 ± 0.01", "unit": "%"}]}
{"molecule": "TGF-β", "values": [{"measurement": "% control, sulfated GAGs", "setting": "normal human fibroblasts [3]", "value": 176, "unit": "%"}, {"measurement": "Activity (cpm), sulfated GAGs", "setting": "normal human fibroblasts [3]", "value": 5442, "unit": "cpm"}, {"measurement": "Ratio (act./Prot.), sulfated GAGs", "setting": "normal human fibroblasts [3]", "value": 1491}, {"measurement": "% control, total GAGs", "setting": "normal human fibroblasts [4]", "value": 240, "unit": "%"}, {"measurement": "Activity (cpm), total GAGs", "setting": "normal human fibroblasts [4]", "value": 2590, "unit": "cpm"}, {"measurement": "Ratio (act./Prot.), total GAGs", "setting": "normal human fibroblasts [4]", "value": 709}]}
{"molecule": "chondroitin sulfate", "values": [{"measurement": "FGF-2 protection by GAGs of the skin", "setting": "FGF-2 [5]; chondroitin sulfate solutions at 0.1%, 0.01%, 0.001%, further diluted 1/10, 45° C. 2.15 hrs", "value": "< 100", "unit": "%"}, {"measurement": "FGF-2 protection by GAGs and proteoglycans of the skin (in words)", "setting": "FGF-2 [5]; [11]", "value": "depends on its dose"}]}
{"molecule": "dermatan sulfate", "values": [{"measurement": "FGF-2 protection by GAGs and proteoglycans of the skin (in words)", "setting": "FGF-2 [5]; [11]", "value": "protects FGF-2"}]}
{"molecule": "heparan sulfate [Heparin sulfate]", "values": [{"measurement": "FGF-2 protection by GAGs and proteoglycans of the skin (in words)", "setting": "FGF-2 [5]; [11]", "value": "protects FGF-2"}]}
{"molecule": "heparin", "values": [{"measurement": "Activity of FGF-2 at acid and basic pH in the presence of heparin (in words)", "setting": "FGF-2 [6]", "value": "retain a similar (or even slightly weaker) activity of FGF-2"}, {"measurement": "Protection of FGF-2, positive control", "setting": "FGF-2 [5]; 0.01% heparin in the final reaction medium, 45° C. stress of Example 2", "value": "105.52%±3.04"}, {"measurement": "Protection of the activity of FGF-2 by heparin (in words)", "setting": "FGF-2 [7]; 0° C., 20° C., 37° C., 1 hr to 60 days", "value": "provides protection of the activity of FGF-2 over time"}, {"measurement": "Activity of FGF-2 in the presence of heparin (in words)", "setting": "FGF-2 [7]; 60° C. and 90° C.", "value": "no activity is detected"}, {"measurement": "Proliferation with FGF-2 protected by heparin (in words)", "setting": "[2]; heparin 0.01%, up to 0.5 ng/ml FGF-2", "value": "proliferation is maintained"}, {"measurement": "Protection of FGF-2, positive control", "setting": "FGF-2 [8]", "value": "110.53%±3.20"}, {"measurement": "Protection of FGF-2 against trypsin and chymotripsin (in words)", "setting": "FGF-2 [9]", "value": "total protection of FGF-2"}, {"measurement": "Protection of FGF-2 by heparin (in words)", "setting": "FGF-2 [10]; 80° C.", "value": "not effective"}, {"measurement": "Stability of FGF-2 in the presence of heparin (in words)", "setting": "FGF-2 [10]; various temperatures", "value": "degradation is stopped"}]}
{"molecule": "hyaluronic acid [Hyaluronan]", "values": [{"measurement": "FGF-2 protection by GAGs and proteoglycans of the skin (in words)", "setting": "FGF-2 [5]; [11]", "value": "by no means allows FGF-2 to be protected"}]}
{"molecule": "decorin: proteoglycan consisting of chondroitin sulfate and dermatan sulfate chains (protein, UniProt P07585 31-359, looked up) Decorin: DEASGIGPEVPDDRDFEPSLGPVCPFRCQCHLRVVQCSDLGLDKVPKDLPPDTTLLDLQNNKITEIKDGDFKNLKNLHALILVNNKISKVSPGAFTPLVKLERLYLSKNQLKELPEKMPKTLQELRAHENEITKVRKVTFNGLNQMIVIELGTNPLKSSGIENGAFQGMKKLSYIRIADTNITSIPQGLPPSLTELHLDGNKISRVDAASLKGLNNLAKLGLSFNSISAVDNGSLANTPHLRELHLDNNKLTRVPGGLAEHKYIQVVYLHNNNISVVGSSDFCPPGHNTKKASYSGVSLFSNPVQYWEIQPSTFRCVYVRSAIQLGNYK", "values": [{"measurement": "FGF-2 protection by GAGs and proteoglycans of the skin (in words)", "setting": "FGF-2 [5]; [11]", "value": "inefficient"}]}
